The text below walks through data of patent US20160361311A1, “LIGANDS THAT TARGET HEPATITIS C VIRUS E2 PROTEIN” (AMERICAN UNIVERSITY OF CAIRO, priority 2014, published 2016).

pIC50: −log10 of the molar value.

Assay [1] has as its target T1, recombinant E2 protein (Hepatitis C virus genotype 1b, UniProt Q9WMX2).
T1 construct: encoding amino acids 384-656 of the Con1 envelope protein 2 ectodomain (eE2); made in house; host or cells: HEK293T cells (lentiviral, secreted)
Description: Surface plasmon resonance (Biacore T100) binding to recombinant E2 immobilized on CM5 chip. The text has this:
A construct containing the sequence encoding amino acids 384-656 of the Con1 envelope protein 2 ectodomain (eE2), a genoptype 1 E2 sequence, was cloned into a lentiviral expression vector with a carboxy-terminal Protein A tag separated by a PreScission Protease cleavage consensus sequence. eE2-ProtA was stably expressed in HEK293T cells using lentiviral infection. The protein was secreted into the media and supernatants were purified using IgG Sepharose (GE Healthcare, Piscataway, N.J.). eE2-ProtA was eluted with 100 mM sodium citrate and 20 mM KCl at pH 3 directly into tubes containing 1M Tris pH 9 for immediate neutralization. PreScission Protease was added to the eluted sample at a ratio of 1:50 (enzyme:eE2), and the digest was then dialyzed into 20 mM HEPES pH 7.5, 250 mM NaCl, 5% glycerol. eE2 was separated from the cleaved tag and the PreScission Protease by ion exchange chromatography.
The set of 34 of the ligands predicted by AutoDock to bind to E2 were tested experimentally to determine if they bind to recombinant E2 protein immobilized on a chip using surface Plasmon resonance. The SPR analyses were performed using a Biacore T100 workstation (GE Healthcare, NJ, USA) and Prot-A-tagged HCV E2 protein. 1 μM ProtA-HCV E2 was diluted into 10 mM sodium acetate buffer pH 5 and immobilized for 15 min at a flow speed of 5 μl/min onto a CM5 sensor chip using amine coupling (EDC-NHS). Approximately 10,000 response units (RU) of protein were immobilized on the chip. His-CD81-LEL (Bioclone-CA/USA) binding to HCV E2 was tested prior to injecting the ligands to confirm the E2 protein was functional and would bind CD81-LEL. In a typical experiment with CD81, […] of his-CD81 in 114 μl PBS was injected into channel 2 and 106.4 RUs of CD81 bound to the E2 on the chip. This was followed by testing the binding of the 34 virtual screening hits where the ligands were prepared as 200 μM solutions in PBS and they were introduced to the protein using a pre-programmed 3 min association and 1 min dissociation interval. The response was measured at two time points during dissociation, 10 and 50 seconds, to obtain information on the rate of ligand dissociation from E2. Twenty-three of the ligands predicted by AutoDock to bind to E2 were observed by SPR to bind to the recombinant protein (Table 2). The measured responses for the ligands that bound varied from 54 to 276 RUs. Data was also obtained on the rate of ligand dissociation by measuring the amount of ligand remaining bound at two time points, dissociation 1 (10 seconds) and dissociation 2 (50 seconds), during the rinsing of the chip with buffer (FIG. 8). The majority of the ligands dissociated quickly, as one might expect for small molecules that bind to the surface of a protein.

Assay [2] deals with RD114pp. Description: RD114pp infection of Huh-7 cells (luciferase). The assay is classed as cell-based, feline endogenous virus RD114. The settings on record: Feline endogenous virus RD114, Huh-7, 30 h, read-out: IC50 RD114pp. As for the experimental part: (§1) Pseudotyped retroviral particles harboring HCV envelope proteins (HCVpp) from different genotypes were produced as described previously. A plasmid encoding the feline endogenous virus RD114 glycoprotein [35] was used for the production of RD114pp. Both HCVpp and RD114pp expressed Firefly luciferase.
(§2) To identify ligands that inhibit HCV infection, Huh-7 cells were seeded in 96-well plates and treated the day after with six different concentrations of each ligand diluted in DMSO in duplicate using a Zephyr automated liquid handling workstation (Caliper BioSciences, Hopkinton, Mass.). The final concentration of DMSO (1%) was adjusted to be the same for all ligand concentrations. Cells treated with DMSO were used as negative controls. Cells treated with different concentrations of anti-CD81 (JS-81 from BD Pharmingen, San Jose, Calif.) 1 hour before infection, were also used as positive controls. The third day, RD114pp, HCVpp or HCVcc were inoculated and incubated for 30 hours at 37° C. Firefly and Gaussia luciferase assays were performed as indicated by the manufacturer (Promega, San Luis Obispo, Calif.).
Pseudotyped retroviral particles harboring the envelope protein of an endogenous feline retrovirus (RD114pp) were first used to determine the specificity and the safety of molecules.

Assay [3] concerns HCVcc. As to the kind of experiment: HCVcc infection of Huh-7 cells (Gaussia luciferase). As to conditions: Hepatitis C virus, Huh-7, 30 h, read-out: IC50 HCVcc. The assay is classed as cell-based, HCV. On the procedure: The cell culture-produced HCV particles (HCVcc) used in this study were based on the JFH1 strain [36] and were prepared as described previously. They were engineered to express the A4 epitope, titer-enhancing mutations and Gaussia luciferase.
as §2
The remaining ligands were next tested against pseudotyped retroviral particles harboring genotype-2a HCV envelope proteins (HCVpp 2a), cell culture produced HCV particles (HCVcc) or RD114pp. As a positive control, an anti-CD81 antibody was used in parallel.

Assay [4] has as its system HCVpp 1a. As to the kind of experiment: HCVpp genotype infection of Huh-7 cells, 24-well. The settings on record: Hepatitis C virus. The assay is classed as cell-based, HCV. On the procedure: as §1, §2
(§3) The analysis of the effect of 281816 ligand on Huh-7 infection by HCVpp bearing envelope proteins from different genotypes was performed in 24-well plates using the method described above. This ligand was also screened for toxicity to the hepatocytes using the MTS (3-(4,5-dimethylthiazol-2-yl)-5-(3-carboxymethoxyphenyl)-2-(4-sulfophenyl)-2Htetrazolium) assay.
(§4) To determine if 281816 would inhibit HCV genotypes other than 2a, a series of infection assays were performed with HCVpp bearing envelope proteins from a number of different HCV genotypes.

For assay [5], the system named is HCVpp 1b. Description: HCVpp genotype infection of Huh-7 cells, 24-well. The settings on record: Hepatitis C virus. The assay is classed as cell-based, HCV. On the procedure:
as §1, §2, §3, §4

Assay [6] deals with HCVpp 2a. Description: HCVpp genotype infection of Huh-7 cells, 24-well. The assay is classed as cell-based, HCV. As to conditions: Hepatitis C virus. On the procedure:
as §1, §2, §3, §4

Assay [7] has as its system HCVpp 2b. As to the kind of experiment: HCVpp genotype infection of Huh-7 cells, 24-well. The assay is classed as cell-based, HCV. As to conditions: Hepatitis C virus. On the procedure:
as §1, §2, §3, §4

Assay [8] deals with HCVpp 4a. As to the kind of experiment: HCVpp genotype infection of Huh-7 cells, 24-well. As to conditions: Hepatitis C virus. The assay is classed as cell-based, HCV. As for the experimental part: as §1, §2, §3, §4
The test system of assay [9] is HCVpp 6a. As to the kind of experiment: HCVpp genotype infection of Huh-7 cells, 24-well. The assay is classed as cell-based, HCV. The settings on record: Hepatitis C virus. On the procedure: as §1, §2, §3, §4

T1 sequence (Q9WMX2 384-656): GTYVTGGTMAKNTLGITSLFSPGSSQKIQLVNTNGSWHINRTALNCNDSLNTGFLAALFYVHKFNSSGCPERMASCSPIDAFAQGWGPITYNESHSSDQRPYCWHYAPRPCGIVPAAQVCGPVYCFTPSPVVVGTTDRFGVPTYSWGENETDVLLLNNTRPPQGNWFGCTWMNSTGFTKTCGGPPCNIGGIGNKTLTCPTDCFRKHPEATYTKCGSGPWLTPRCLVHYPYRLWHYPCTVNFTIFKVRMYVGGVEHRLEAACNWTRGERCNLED

By pIC50 is commonly meant −log10 of the IC50, conventionally taken in molar units. In the case of `CSc1ccc2c(c1)C(N1CCN(C)CC1)Cc1ccccc1S2` (centres unmarked) [Ligand 281816], in assay [1] (200 μM ligand in PBS, 3 min association), the “Binding (RU)” value was 64.5 RU. Moreover, in assay [1] (response remaining 10 sec after rinsing with buffer), the “Dissociation 1 (RU)” value is 3.7 RU. Besides, the “Dissociation 2 (RU)” value in assay [1] (response remaining 50 sec after rinsing with buffer) is on record as 0.9 RU. In addition, the pIC50 was under 5.00 in [2]; 5.40 in assay [3]; 5.53 in assay [4]; 5.33 in assay [5]; 5.65 in assay [6]; 5.53 in [7]. Moreover, the negative-log IC50 (pIC50) in assay [8] was 5.46; in assay [9], 5.48.
